Earlier results on two compounds are cited in US20090275559A1, “Chronotherapeutic formulations of modified-release calcium channel blocker anti-hypertensive drugs in combination with other anti-hypertensive drugs for 24-hour optimal treatment of hypertension, nocturnal hypertension, and/or hypertension with angina” (Blue Note Pharmaceuticals, Inc., priority 2008, published 2009).

For data set [1] the following is noted: low pHs (0.1 N HCl).
For data set [2] the following is noted: extensive first-pass metabolism in the liver.

For the compound `CCCCC1=NC2(CCCC2)C(=O)N1Cc1ccc(-c2ccccc2-c2nnn[nH]2)cc1` [Irbesartan], in data set [1], the water solubility result is “low”.

`COc1ccc([C@@H]2Sc3ccccc3N(CCN(C)C)C(=O)[C@@H]2OC(C)=O)cc1` [diltiazem]: in data set [2], the plasma half-life was 2 to 6 h.
